# Experimental data: ChEMBL document CHEMBL1201862, “PubChem BioAssay data set” (2004)
# Activity calls are given as the source filed them.
# Legend:
# Major prion protein = Major prion protein (Homo sapiens, UniProt P04156); format: functional, cell-based
# cells [1] = test: cells
# cells [2] = format: functional, cell-based
# [3] = inhibitors of intracellular T. cruzi replication, confirmation, NIH3T3 host cells, beta-gal luminescence (AID 2044); format: functional, cell-based;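 further: intracellular parasites grown in NIH/3T3 mouse fibroblasts as host cells; luminescent beta-galactosidase reporter signal from transgenic T. cruzi replicating inside host cells; inhibitors lower the luminescence signal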
# cells [4] = format: functional, cell-based; remark: listed apart in the source
# [5] = cytotoxicity toward NIH3T3 fibroblasts, dose response, counter-screen, cell-based, ATP luminescence, mouse fibroblasts (AID 2010); format: functional;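 further: cells exposed to compound for about 90 hours before reading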
# [6] = biological target: T1, Microphthalmia-associated transcription factor (Homo sapiens, UniProt O75030); test: TRPM1 promoter luciferase signal decrease, dose response, MITF inhibitor project, cell-based, SK-MEL-5, cherry-picked, set 3 (AID 493073); format: functional
# T1 sequence (O75030 whole entry): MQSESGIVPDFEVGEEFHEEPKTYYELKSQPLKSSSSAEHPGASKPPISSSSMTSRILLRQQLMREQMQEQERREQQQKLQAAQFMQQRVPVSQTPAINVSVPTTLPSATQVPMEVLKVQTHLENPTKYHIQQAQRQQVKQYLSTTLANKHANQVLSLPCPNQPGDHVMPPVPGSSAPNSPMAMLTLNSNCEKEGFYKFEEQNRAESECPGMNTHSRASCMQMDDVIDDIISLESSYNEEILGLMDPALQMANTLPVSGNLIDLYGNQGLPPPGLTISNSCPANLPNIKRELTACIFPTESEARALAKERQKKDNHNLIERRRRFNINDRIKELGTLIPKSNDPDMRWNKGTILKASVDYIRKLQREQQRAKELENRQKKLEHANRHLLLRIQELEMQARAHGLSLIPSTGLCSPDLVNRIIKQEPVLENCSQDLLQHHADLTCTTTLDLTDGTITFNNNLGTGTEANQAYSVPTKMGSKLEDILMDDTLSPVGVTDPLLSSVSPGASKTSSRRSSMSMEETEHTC
# A-375 = test: MITF: Counter assay: A375 proliferation Measured in Cell-Based System Using Plate Reader - 2084-03_Inhibitor_Dose_DryPowder_Activity. [Related pubchem assays (depositor defined):AID488944]; format: functional; settings: Homo sapiens
# [7] = biological target: T2, DNA repair protein RAD52 homolog (Homo sapiens, UniProt P43351); format: functional, biochemical
# T2 sequence (P43351 whole entry): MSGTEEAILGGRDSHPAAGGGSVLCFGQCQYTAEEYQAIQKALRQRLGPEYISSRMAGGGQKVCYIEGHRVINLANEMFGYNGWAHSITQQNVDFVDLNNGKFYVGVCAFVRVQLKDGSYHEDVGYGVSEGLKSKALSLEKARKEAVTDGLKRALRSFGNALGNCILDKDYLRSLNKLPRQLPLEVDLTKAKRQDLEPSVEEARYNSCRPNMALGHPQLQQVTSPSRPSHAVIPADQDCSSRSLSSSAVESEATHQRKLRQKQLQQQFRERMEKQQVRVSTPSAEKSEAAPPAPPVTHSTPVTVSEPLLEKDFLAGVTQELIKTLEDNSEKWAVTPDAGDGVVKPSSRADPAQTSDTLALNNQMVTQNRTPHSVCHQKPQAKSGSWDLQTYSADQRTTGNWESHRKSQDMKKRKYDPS
# [8] = HepG2 cell cytotoxicity, dose response, cytotoxicity control, ATP luminescence, cherry-pick, set 6 (AID 1053125); format: functional, cell-based
# Transthyretin = Transthyretin (Homo sapiens, UniProt P02766); test: Luminescence-based cell-based high throughput dose response assay to identify activators of Transthyretin (TTR) transcription.; format: functional
# cells [9] = settings: A549
# cells [10] = test: cells; remark: listed apart in the source
# cells [11] = settings: HEK293
# [12] = biological target: T3, Corticotropin-releasing factor receptor 2/Corticotropin-releasing factor-binding protein (Homo sapiens, UniProt P24387+Q13324); test: Dose Response confirmation of uHTS hits for small molecule antagonists of the CRF-binding protein and CRF-R2 receptor complex.; format: functional; settings: read-out: IC50_Mean
# T3 sequence (Q13324 whole entry): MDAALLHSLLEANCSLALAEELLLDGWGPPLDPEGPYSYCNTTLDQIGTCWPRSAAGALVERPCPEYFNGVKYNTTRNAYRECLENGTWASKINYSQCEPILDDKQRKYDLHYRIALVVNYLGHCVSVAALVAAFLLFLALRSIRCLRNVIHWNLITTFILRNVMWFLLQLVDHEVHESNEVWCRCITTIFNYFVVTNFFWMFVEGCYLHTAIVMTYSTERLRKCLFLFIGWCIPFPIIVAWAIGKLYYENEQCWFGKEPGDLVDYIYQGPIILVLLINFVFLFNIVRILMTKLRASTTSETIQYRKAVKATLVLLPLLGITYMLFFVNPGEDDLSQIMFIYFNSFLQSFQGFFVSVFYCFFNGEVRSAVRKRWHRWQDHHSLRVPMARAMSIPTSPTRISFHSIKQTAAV
# T3 sequence (P24387 whole entry): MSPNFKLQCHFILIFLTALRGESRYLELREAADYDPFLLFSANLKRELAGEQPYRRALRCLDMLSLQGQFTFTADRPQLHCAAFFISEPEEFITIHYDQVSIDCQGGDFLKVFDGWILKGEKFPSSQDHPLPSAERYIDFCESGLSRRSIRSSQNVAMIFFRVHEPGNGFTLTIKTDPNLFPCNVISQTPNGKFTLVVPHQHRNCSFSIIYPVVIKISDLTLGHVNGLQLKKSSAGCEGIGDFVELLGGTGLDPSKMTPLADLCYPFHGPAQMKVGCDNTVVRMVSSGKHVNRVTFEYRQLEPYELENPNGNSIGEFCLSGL
# [13] = biological target: T3, Corticotropin-releasing factor receptor 2/Corticotropin-releasing factor-binding protein; test: activators of CRF receptor 2 with binding protein – uHTS hits, confirmation (AID 602473); format: functional; settings: read-out: EC50_Mean
# Kallikrein-7 = Kallikrein-7 (Homo sapiens, UniProt P49862); test: Fluorescence Intensity-based biochemical primary high throughput dose response assay to identify activators of kallikrein-7 (K7) zymogen.
# [14] = biological target: Tyrosyl-DNA phosphodiesterase 2 (Homo sapiens, UniProt O95551); test: human TDP2 enzyme inhibitors, dose response, biochemical, epi absorbance, IC50 (AID 743297)
# [15] = NIH-3T3 fibroblast cytotoxicity, dose response, cytotoxicity control, cell-based, fluorescence, Alamar Blue, secondary assay (AID 2327); format: functional;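 further: NIH-3T3 mouse fibroblasts cultured with fluconazole at 8 µg/mL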
# [16] = C. albicans growth with fluconazole, confirmation, fluorescence, retest (AID 2467); format: functional, cell-based
# INS1 = test: beta cell apoptosis inhibitors, cytokine rescue, dose response, luminescence, retest (AID 449756); format: functional, cell-based; settings: Rattus norvegicus;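 further: cell death triggered by IL-1 beta plus TNF-alpha plus IFN-gamma mixture; protective hits raise ATP signal compared with cytokine alone wells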
# [17] = off-target signal loss in HeLa-CEM21 co-culture – HeLa F-luc CTL cells, cherry-picked, counter-screen for HIV-1 Env fusion inhibitor project, dose response (AID 652040); format: functional, cell-based;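 further: potency for signal decrease marking cytotoxic or nonspecific inhibition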
# [18] = inhibitors of clade B AD8 Env fusion, dose response, cell-based, cherry-pick (AID 652062); format: functional;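 further: luciferase signal from cell-cell fusion driven by HIV-1 clade B AD8 Env; potency is for inhibitors of fusion seen as a drop in luminescence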
# [19] = biological target: COUP transcription factor 2 (Homo sapiens, UniProt P24468); test: Luminescence-based cell-based high throughput dose response assay to identify inhibitors of COUP-TFII (NR2F2).; format: functional;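 further: HEK293 cells transiently cotransfected with COUP-TFII expression vector and reporter; luciferase reporter luminescence driven by COUP-TFII from the pX2-168 reporter plasmid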
# [20] = biological target: 1-phosphatidylinositol 4,5-bisphosphate phosphodiesterase gamma-1 (Homo sapiens, UniProt P19174); test: Counterscreen for inhibitors of phospholipase C isozymes (PLC-B3): Fluorescence-based biochemical high throughput dose response assay to identify inhibitors of phospholipase C isozymes (PLC-gamma1).
# [21] = biological target: 1-phosphatidylinositol 4,5-bisphosphate phosphodiesterase beta-3 (Homo sapiens, UniProt Q01970); test: Fluorescence-based biochemical high throughput dose response assay to identify inhibitors of phospholipase C isozymes (PLC-B3).
# Caspase-6 = Caspase-6 (Homo sapiens, UniProt P55212); test: human caspase-6 inhibitors, dose response, biochemical, VEID-R110 fluorescence, cherry-pick (AID 720632)
# Caspase-7 = Caspase-7 (Homo sapiens, UniProt P55210); test: human caspase-7 inhibitors, dose response, selectivity assay for caspase-6 inhibitor project, biochemical, DEVD-R110 fluorescence, cherry-pick (AID 743295)
structure (smiles),measurement,setting,value
CCOC(=O)CNC(=O)CSc1nc2c(C)cccc2cc1CC,IC50,Major prion protein,2.76 µM (active)
same,IC50,cells [1],> 138 µM (inactive)
OCCNc1c2ccccc2nc2ccccc12,EC50,cells [2],23 µM (active)
same,EC50,[3],0.993 µM (active)
same,EC50,cells [4],> 350 µM (not active)
same,EC50,[5],7.92 µM (active)
same,AC50,[6],7.28 µM (active)
same,AC50,A-375,28.6 µM (active)
same,AC50,[7],9.09 µM (active)
same,AC50,[8],17 µM (active)
same,EC50,Transthyretin,> 167 µM (inactive)
same,AC50,cells [9],11.6 µM (active)
same,AC50,cells [10],11.7 µM (active)
same,AC50,cells [11],14.2 µM (active)
CCCCOC(=O)Oc1ccc2c(=O)c(Oc3cccc(C)c3)coc2c1,IC50,[12],> 47.1 µM (inactive)
same,EC50,[13],> 53 µM (inactive)
same,EC50,Kallikrein-7,6.86 µM (active)
CC1=NN(c2ccccc2)C(=O)/C1=C\c1ccc(Br)s1,IC50,[14],> 128 µM (inactive)
Clc1ccc(OCCN2CCN(c3ncnc4sccc34)CC2)cc1,EC50,[15],> 150 µM (inactive)
same,EC50,[16],0.044 µM (active)
same,AC50,INS1,0.503 µM (active)
same,AC50,[17],> 70 µM (inactive)
same,AC50,[18],< 0.26 µM (active)
same,IC50,[19],1.13 µM (active)
O=C(CSCc1ccccc1)Nc1cccc(F)c1,IC50,[20],> 122 µM (inactive)
same,IC50,[21],> 122 µM (inactive)
Cc1n[nH]c([S+]([O-])CC(=O)O)c1[N+](=O)[O-] (stereo not drawn),AC50,Caspase-6,4.04 µM (active)
same,AC50,Caspase-7,56.5 µM (active)
